Assay results as given in ChEMBL document CHEMBL3286374, “Muchimangins G-J, fully substituted xanthones with a diphenylmethyl substituent, from Securidaca longepedunculata” (J Nat Prod, 2014).
Activity calls are given as the source filed them. No cut-off for these calls is given here.

How the values were obtained:
PANC-1 [1] = test: Cytotoxicity against human PANC1 cells in nutrient-rich DMEM media by WST8 assay; format: functional, cell-based
PANC-1 [2] = test: Cytotoxicity against human PANC1 cells in nutrient-deprived NDM media by WST8 assay; format: functional, cell-based

SMILES | Activity (PANC-1 [1]) | Activity (PANC-1 [2])
COc1cc(OC)c(C(c2ccccc2)c2c(O)c(OC)c3oc4c(OC)c(O)c(OC)c(O)c4c(=O)c3c2O)cc1OC (stereo not drawn) | inactive | inactive
COc1cc(OC)c(C(c2ccccc2)c2c(O)c(OC)c3oc4c(O)c(OC)c(OC)c(OC)c4c(=O)c3c2O)cc1OC (stereo not drawn) | inactive | inactive
COc1cc(OC)c(C(c2ccccc2)c2c(O)c(OC)c3oc4c(OC)c(OC)c(OC)c(O)c4c(=O)c3c2O)cc1OC (stereo not drawn) | inactive | inactive
COc1cc(OC)c(C(c2ccccc2)c2c(O)c(OC)c3oc4c(OC)c5c(c(OC)c4c(=O)c3c2O)OCO5)cc1OC (stereo not drawn) | inactive | inactive
